Measurements published in PubChem BioAssay AID1963838 (Molecular Pharmacology Branch, DTP, NCI, 2024).

System: 855422-203-R-J1-PDC complex spheroid viability
Test: Anticancer human tumor 855422-203-R-J1-PDC patient-derived bladder carcinoma cell line growth inhibition [POLQ]
Conditions: for IC50: curve of first compound; for viability, T/C: stronger effect = lower value
Method: Multicellular complex tumor spheroid response to Polymerase (POL) inhibitors (novobiocin, ART-558, RP6685) in combination with a variety of drugs and investigational agents in selected tumor cell lines
The POL inhibitors (novobiocin, ART-558, and RP6685) were evaluated both individually and in combination with standard of care and investigational anticancer small molecules within a complex spheroid model of solid tumors. . Complex spheroids include a stromal component modeled by human endothelial cells (HUVEC) and fibroblasts modeled by human mesenchymal stem cells (MSCs). The concentration ranges selected for each drug and investigational agent were based upon clinically achievable concentrations if the clinical Cmax of the agent was known.
Compounds. The drugs and investigational agents: novobiocin (NSC847541), ART-558 (NSC835418), RP-6685 (NSC848927), peposertib (NSC802822), ceralasertib (NSC780249), elimusertib (NSC800525), camonsertib (NSC841442), AZD-1390 (NSC803789), olaparib (NSC753686), talazoparib (NSC767125), rucaparib (NSC756644), sotorasib (NSC818433), MRTX-1133 (NSC836407), SN-38 (NSC673596), topotecan (NSC609699), epotoside (NSC141540), doxorubicin (NSC123127), gemcitabine (NSC613327), 5-fluorouracil (NSC19893), paclitaxel (NSC125973), vemurafenib (NSC761431), MSA-2 (NSC828583), SN-011 (NSC837082), adavosertib (NSC754352), prexasertib (NSC758257), carboplatin (NSC241240) and oxaliplatin (NSC266046), were obtained from the National Cancer Institute (NCI) Developmental Therapeutics Program Chemical Repository (21). The FDA-approved anticancer drug set is available from the Developmental Therapeutics Program at https://dtp.cancer.gov/organization/dscb/obtaining/. […] The stock solutions were prepared in dimethyl sulfoxide (DMSO, Sigma-Aldrich, St. Louis, MO, cat. D2650), except for the platinum compounds which were prepared in saline (Quality Biological, Gaithersburg, MD, cat. 114-055-101), at 800-fold the tested concentration and stored at -70 degrees C prior to their use. All drugs and investigational agents were tested over a range starting from a high concentration at or near the clinical Cmax and decreasing in half-log increments. If the clinical Cmax for an agent had not been determined, the highest concentration tested was 10 microM, except for SN-38, which was tested at a high concentration of 1 microM.
Cell Culture. All cells were maintained in an incubator at 37 degrees C and 5% CO2 with 95% humidity. The PDC lines were cultured according to standard operating procedures established by the NCI PDMR (https://pdmr.cancer.gov). Table 3 of the manuscript, lists the cell lines along with the number of the three cell types plated to form the mct-spheroids and media for tumor cell growth. After thawing, all PDC lines, except 997537-175-T-J1-PDC and 415267-285-R-J2-PDC, were cultured in Matrigel-coated flasks prepared with a working solution of 1X Ham's F-12 nutrient mix, without supplementation (Thermo Fisher Scientific, cat. 11765054), 100 U/mL penicillin-streptomycin (Thermo Fisher Scientific, cat. 15140122), and 2.5% Matrigel (Corning Inc., Corning, NY, cat. 354248) for the first three passages. The two PDC lines 997537-175-T-J1-PDC and 415267-285-R-J2-PDC were cultured on uncoated flasks. The 857933-349-R-J2-PDC line was cultured in 6C/Colon 1B media containing advanced DMEM/F-12 (Thermo Fisher Scientific, cat. 12634028), 10 mM HEPES (Thermo Fisher Scientific, cat. 15630080), 1X GlutaMAX supplement (Thermo Fisher Scientific, cat. 35050061), 0.1 mg/mL primocin (InvivoGen, San Diego, CA, cat. ant-pm-2), 10% defined fetal bovine serum, heat inactivated (HyClone Laboratories Inc., Logan, UT, cat. SH30070.03HI), 50% L-WRN conditioned media (ATCC, cat. CRL-3276), 1.25 mM N-Acetyl-L-cysteine (Sigma-Aldrich, cat. A9165), 10 mM nicotinamide (Sigma-Aldrich, cat. N0636), 1X B-27 supplement (Thermo Fisher Scientific, cat. 17504044), 1X N-2 supplement (Thermo Fisher Scientific, cat. […]
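Further: spheroids exposed to compounds for seven days before readout.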

## CC(=O)O[C@H]1C(=O)[C@@]2(C)[C@H]([C@H](OC(=O)c3ccccc3)[C@]3(O)C[C@H](OC(=O)[C@H](O)[C@@H](NC(=O)c4ccccc4)c4ccccc4)C(C)=C1C3(C)C)[C@]1(OC(C)=O)CO[C@@H]1C[C@@H]2O + Nc1ccc(C#CCN(C(=O)Cc2ncc(C(F)(F)F)cc2C(F)(F)F)c2ccc(F)cc2)nn1
Second compound 0.0316 µM
  IC50: < 9.49 nM
Second compound 0.1 µM
  IC50: < 9.49 nM
Second compound 0.316 µM
  IC50: < 9.49 nM
Second compound 1 µM
  IC50: < 9.49 nM
Second compound 3.16 µM
  IC50: < 9.49 nM
Second compound 10 µM
  IC50: < 9.49 nM
Second compound 0.0316 µM, first compound 0.00949 µM
  viability, T/C: 9.1%
Second compound 0.0316 µM, first compound 0.03 µM
  viability, T/C: 8.18%
Second compound 0.0316 µM, first compound 0.0949 µM
  viability, T/C: 10.3%
Second compound 0.0316 µM, first compound 0.3 µM
  viability, T/C: 9.92%
Second compound 0.0316 µM, first compound 0.949 µM
  viability, T/C: 7.22%
Second compound 0.0316 µM, first compound 3 µM
  viability, T/C: 9.23%
Second compound 0.1 µM, first compound 0.00949 µM
  viability, T/C: 12.1%
Second compound 0.1 µM, first compound 0.03 µM
  viability, T/C: 8.86%
Second compound 0.1 µM, first compound 0.0949 µM
  viability, T/C: 8.29%
Second compound 0.1 µM, first compound 0.3 µM
  viability, T/C: 9.07%
Second compound 0.1 µM, first compound 0.949 µM
  viability, T/C: 6.61%
Second compound 0.1 µM, first compound 3 µM
  viability, T/C: 8.93%
Second compound 0.316 µM, first compound 0.00949 µM
  viability, T/C: 10.2%
Second compound 0.316 µM, first compound 0.03 µM
  viability, T/C: 10%
Second compound 0.316 µM, first compound 0.0949 µM
  viability, T/C: 7.73%
Second compound 0.316 µM, first compound 0.3 µM
  viability, T/C: 7.49%
Second compound 0.316 µM, first compound 0.949 µM
  viability, T/C: 7.31%
Second compound 0.316 µM, first compound 3 µM
  viability, T/C: 7.76%
Second compound 1 µM, first compound 0.00949 µM
  viability, T/C: 9.77%
Second compound 1 µM, first compound 0.03 µM
  viability, T/C: 10.3%
Second compound 1 µM, first compound 0.0949 µM
  viability, T/C: 7.55%
Second compound 1 µM, first compound 0.3 µM
  viability, T/C: 9.06%
Second compound 1 µM, first compound 0.949 µM
  viability, T/C: 7.76%
Second compound 1 µM, first compound 3 µM
  viability, T/C: 9.17%
Second compound 3.16 µM, first compound 0.00949 µM
  viability, T/C: 14.2%
Second compound 3.16 µM, first compound 0.03 µM
  viability, T/C: 8.33%
Second compound 3.16 µM, first compound 0.0949 µM
  viability, T/C: 9.73%
Second compound 3.16 µM, first compound 0.3 µM
  viability, T/C: 9.4%
Second compound 3.16 µM, first compound 0.949 µM
  viability, T/C: 12.7%
Second compound 3.16 µM, first compound 3 µM
  viability, T/C: 10.1%
Second compound 10 µM, first compound 0.00949 µM
  viability, T/C: 12.2%
Second compound 10 µM, first compound 0.03 µM
  viability, T/C: 10.5%
Second compound 10 µM, first compound 0.0949 µM
  viability, T/C: 11.7%
Second compound 10 µM, first compound 0.3 µM
  viability, T/C: 9.8%
Second compound 10 µM, first compound 0.949 µM
  viability, T/C: 7.89%
Second compound 10 µM, first compound 3 µM
  viability, T/C: 9.4%

## O=c1[nH]cc(F)c(=O)[nH]1 + Nc1ccc(C#CCN(C(=O)Cc2ncc(C(F)(F)F)cc2C(F)(F)F)c2ccc(F)cc2)nn1
Second compound 0.0316 µM
  IC50: 2450 nM
Second compound 0.1 µM
  IC50: 2160 nM
Second compound 0.316 µM
  IC50: 3000 nM
Second compound 1 µM
  IC50: 2420 nM
Second compound 3.16 µM
  IC50: 3060 nM
Second compound 10 µM
  IC50: 2750 nM
Second compound 0.0316 µM, first compound 0.0316 µM
  viability, T/C: 118%
Second compound 0.0316 µM, first compound 0.1 µM
  viability, T/C: 110%
Second compound 0.0316 µM, first compound 0.316 µM
  viability, T/C: 160%
Second compound 0.0316 µM, first compound 1 µM
  viability, T/C: 65.3%
Second compound 0.0316 µM, first compound 3.16 µM
  viability, T/C: 47.4%
Second compound 0.0316 µM, first compound 10 µM
  viability, T/C: 43.9%
Second compound 0.1 µM, first compound 0.0316 µM
  viability, T/C: 90.8%
Second compound 0.1 µM, first compound 0.1 µM
  viability, T/C: 111%
Second compound 0.1 µM, first compound 0.316 µM
  viability, T/C: 142%
Second compound 0.1 µM, first compound 1 µM
  viability, T/C: 66.6%
Second compound 0.1 µM, first compound 3.16 µM
  viability, T/C: 46.6%
Second compound 0.1 µM, first compound 10 µM
  viability, T/C: 37.1%
Second compound 0.316 µM, first compound 0.0316 µM
  viability, T/C: 118%
Second compound 0.316 µM, first compound 0.1 µM
  viability, T/C: 122%
Second compound 0.316 µM, first compound 0.316 µM
  viability, T/C: 124%
Second compound 0.316 µM, first compound 1 µM
  viability, T/C: 63.2%
Second compound 0.316 µM, first compound 3.16 µM
  viability, T/C: 54%
Second compound 0.316 µM, first compound 10 µM
  viability, T/C: 44.8%
Second compound 1 µM, first compound 0.0316 µM
  viability, T/C: 95.3%
Second compound 1 µM, first compound 0.1 µM
  viability, T/C: 112%
Second compound 1 µM, first compound 0.316 µM
  viability, T/C: 99.6%
Second compound 1 µM, first compound 1 µM
  viability, T/C: 68.5%
Second compound 1 µM, first compound 3.16 µM
  viability, T/C: 46.2%
Second compound 1 µM, first compound 10 µM
  viability, T/C: 40%
Second compound 3.16 µM, first compound 0.0316 µM
  viability, T/C: 103%
Second compound 3.16 µM, first compound 0.1 µM
  viability, T/C: 107%
Second compound 3.16 µM, first compound 0.316 µM
  viability, T/C: 104%
Second compound 3.16 µM, first compound 1 µM
  viability, T/C: 60.6%
Second compound 3.16 µM, first compound 3.16 µM
  viability, T/C: 53.1%
Second compound 3.16 µM, first compound 10 µM
  viability, T/C: 46.2%
Second compound 10 µM, first compound 0.0316 µM
  viability, T/C: 96.9%
Second compound 10 µM, first compound 0.1 µM
  viability, T/C: 105%
Second compound 10 µM, first compound 0.316 µM
  viability, T/C: 99.9%
Second compound 10 µM, first compound 1 µM
  viability, T/C: 66.8%
Second compound 10 µM, first compound 3.16 µM
  viability, T/C: 53.1%
Second compound 10 µM, first compound 10 µM
  viability, T/C: 40.8%
